Earlier results as cited in US20050244461A1, “Controlled release drug delivery systems and methods for treatment of an eye” (Allergan, Inc., priority 2004, published 2005).

Details: in vivo efficacy; 25 mg hydrocortisone equivalent to 1 mg dexamethasone; Goodman and Gilman

For `C[C@]12CCC(=O)C=C1CC[C@@H]1[C@@H]2[C@@H](O)C[C@@]2(C)[C@H]1CC[C@]2(O)C(=O)CO` [hydrocortisone], which “Potency relative to dexamethasone” value is on record?
Its value is “approximately twentyfivefold less potent than dexamethasone”.
